Measured values from patent US20060204547A1, “Drug delivery stent with extended in vivo release of anti-inflammatory” (Conor Medsystems, Inc., priority 2005, published 2006).

Assay: in vivo Pimecrolimus release from stent implanted in porcine model, residual drug load by HPLC
Conditions: PLGA matrix reservoir stent, FIG. 4, porcine
Source text: In the example of FIG. 4, a stent is cut from a cobalt chromium alloy according to the pattern shown in FIGS. 1 and 2 and Pimecrolimus is loaded in a PLGA matrix within reservoirs in the stent. The drug and matrix are arranged for directional delivery of the drug primarily to the mural side of the stent. The in vivo drug release rate is programmed by providing different concentrations of drug in different regions of the matrix similar to the regions shown in FIG. 3, with a luminal region 50 of primarily PLGA, a middle region 60 of about 75% Pimecrolimus and about 25% PLGA, and a mural region 70 of about 95% Pimecrolimus and about 5% PLGA. The reservoirs are filled, by volume, with about 20-25% base or luminal region, 40-45% middle region, and 25-30% mural region. The in vivo drug releases described herein are normalized for a 3.0 mm diameter×16 mm long expanded stent which has almost 500 reservoirs and a total drug volume of about 0.54 mm^3.
The measurement of in vivo Pimecrolimus release from a stent can be performed according to the following Example. The in vivo release from other implantable medical devices can be performed in a similar manner by removal of tissue and measurement of total drug load and release kinetics by high pressure liquid chromatography (HPLC).
Stents are implanted in a porcine model and explanted at selected time points by removing the entire artery section. The expanded stents are labeled and frozen. The tissue is removed from the stent by slicing the tissue on the outside of the stent lengthwise, inverting the tissue, and removing the tissue by cutting and turning the tissue inside out. The stent may still be covered by a tough elastic membrane which is then removed by splitting the membrane and peeling it off the stent. For longer time points, there will also be a tube of tissue inside the stent. This tube is separated from the stent with tweezers, turned inside out and pulled out of the stent.
The following is the test procedure for generating the in vivo release curves for Pimecrolimus in FIG. 4.
The total drug load (TDL) of Pimecrolimus from a stent is determined by extracting all the polymer and drug from the stent in the solvent acetonitrile. The amount of Pimecrolimus in a solution sample is determined by High Pressure Liquid Chromatography (HPLC). The following conditions are used:
The in vivo release kinetic (RK) for Pimecrolimus from a stent is determined by running the TDL for multiple explanted time points. The TDL for the explanted samples is subtracted from the TDL of an unimplanted stent to determine the amount of Pimecrolimus released at each of the explanted time points.

CC[C@@H]1/C=C(\C)C[C@H](C)C[C@H](OC)[C@H]2O[C@@](O)(C(=O)C(=O)N3CCCC[C@H]3C(=O)O[C@H](/C(C)=C/[C@@H]3CC[C@H](Cl)[C@H](OC)C3)[C@H](C)[C@@H](O)CC1=O)[C@H](C)C[C@@H]2OC [Pimecrolimus]
in vivo cumulative release, percent of total Pimecrolimus loaded on stent (4 hour): about 10% | in vivo cumulative release, percent of total Pimecrolimus loaded on stent (24 hour): about 25% | in vivo cumulative release, percent of total Pimecrolimus loaded on stent (2 day): about 40% | in vivo cumulative release, percent of total Pimecrolimus loaded on stent (8 day): about 50% | in vivo cumulative release, percent of total Pimecrolimus loaded on stent (30 day): about 70% | in vivo cumulative release, percent of total Pimecrolimus loaded on stent (50 day): about 70%
